Test results as given in patent publication US11116760B2 (Gilead Sciences, Inc., priority 2018, dated 2021).
pEC50: −log10 of the molar value.

Molecular target: α4β7 integrin (Homo sapiens (Human), UniProt P13612+P26010)
Experiment: α4β7 Integrin Cell Capture Assay
Format: cell-based
[1] = Table 1, capture of α4β7 expressing RPM18866 cells on MadCAM-1 extracellular domain-coated plate
[2] = RPMI8866 cells captured on MadCAM-1 extracellular domain-coated plate
[3] = Table 2, capture of α4β7 expressing RPM18866 cells on MadCAM-1 extracellular domain-coated plate

α4β7 integrin, sequence (P13612 34-1032): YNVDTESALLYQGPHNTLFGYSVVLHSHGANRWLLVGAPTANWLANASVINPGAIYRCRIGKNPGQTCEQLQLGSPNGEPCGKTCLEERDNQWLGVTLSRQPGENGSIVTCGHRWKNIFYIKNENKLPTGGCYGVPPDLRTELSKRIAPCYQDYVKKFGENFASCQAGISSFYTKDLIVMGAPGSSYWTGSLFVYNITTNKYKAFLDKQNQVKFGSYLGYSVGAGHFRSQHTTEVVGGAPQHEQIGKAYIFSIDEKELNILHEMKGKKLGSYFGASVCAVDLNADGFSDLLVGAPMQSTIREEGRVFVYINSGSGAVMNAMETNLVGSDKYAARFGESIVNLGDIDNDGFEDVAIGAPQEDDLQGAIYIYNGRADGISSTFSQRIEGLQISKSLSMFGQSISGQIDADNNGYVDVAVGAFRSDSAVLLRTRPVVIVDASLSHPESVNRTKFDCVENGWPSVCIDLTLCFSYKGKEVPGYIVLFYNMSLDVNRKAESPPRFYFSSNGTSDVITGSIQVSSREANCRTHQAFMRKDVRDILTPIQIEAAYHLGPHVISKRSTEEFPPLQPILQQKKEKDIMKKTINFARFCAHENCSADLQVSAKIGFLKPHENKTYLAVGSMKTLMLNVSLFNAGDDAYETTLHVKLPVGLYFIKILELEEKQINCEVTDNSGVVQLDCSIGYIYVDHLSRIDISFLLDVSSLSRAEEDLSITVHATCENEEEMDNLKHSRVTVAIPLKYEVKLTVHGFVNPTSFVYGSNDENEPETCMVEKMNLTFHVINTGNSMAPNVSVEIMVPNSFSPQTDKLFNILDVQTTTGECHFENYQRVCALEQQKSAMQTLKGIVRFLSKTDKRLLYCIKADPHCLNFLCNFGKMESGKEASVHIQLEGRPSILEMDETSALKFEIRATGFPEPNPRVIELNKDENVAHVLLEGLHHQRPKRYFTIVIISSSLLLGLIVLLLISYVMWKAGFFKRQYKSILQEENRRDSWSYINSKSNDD
α4β7 integrin, sequence (P26010 20-798): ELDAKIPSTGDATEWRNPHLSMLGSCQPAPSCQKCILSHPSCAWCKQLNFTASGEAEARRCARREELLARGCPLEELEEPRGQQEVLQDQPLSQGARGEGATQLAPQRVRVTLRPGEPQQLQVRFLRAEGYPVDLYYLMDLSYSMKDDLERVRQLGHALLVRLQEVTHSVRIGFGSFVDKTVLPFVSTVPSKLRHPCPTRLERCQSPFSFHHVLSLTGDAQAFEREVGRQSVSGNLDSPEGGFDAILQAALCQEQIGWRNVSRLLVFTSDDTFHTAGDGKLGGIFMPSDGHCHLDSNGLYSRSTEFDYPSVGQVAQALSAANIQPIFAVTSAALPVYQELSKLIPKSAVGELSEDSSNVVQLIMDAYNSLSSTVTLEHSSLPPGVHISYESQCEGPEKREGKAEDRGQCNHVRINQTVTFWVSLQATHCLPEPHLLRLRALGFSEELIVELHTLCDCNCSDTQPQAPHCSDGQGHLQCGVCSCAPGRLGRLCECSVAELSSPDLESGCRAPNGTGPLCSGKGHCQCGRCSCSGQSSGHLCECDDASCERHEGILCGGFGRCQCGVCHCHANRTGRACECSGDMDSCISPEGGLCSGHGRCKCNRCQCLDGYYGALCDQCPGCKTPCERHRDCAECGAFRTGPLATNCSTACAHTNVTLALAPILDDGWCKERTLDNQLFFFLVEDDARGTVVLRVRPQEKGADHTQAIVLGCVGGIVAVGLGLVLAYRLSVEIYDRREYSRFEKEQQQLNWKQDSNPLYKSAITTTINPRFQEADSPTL

pEC50 [1] | pEC50 [3] | Compound | other results
7.82 |  | C[C@@H](N(C)c1cc(F)c(C(=O)N[C@@H](Cc2ccc(-c3ccc(C#N)cc3Cl)c3ncccc23)C(=O)O)c(F)c1)C(F)(F)F [Example 87, (S)-3-(8-(2-chloro-4-cyanophenyl)quinolin-5-yl)-2-(2,6-difluoro-4-(methyl((R)-1,1,1-trifluoropropan-2-yl)amino)benzamido)propanoic acid] | 
 |  | Cc1cc(N2CCOC[C@@H]2C(F)(F)F)cc(F)c1C(=O)N[C@@H](Cc1ccc(-c2c(C)c(C(F)(F)F)cn(C)c2=O)c2ncccc12)C(=O)O [Example 457] | pEC50 [2]: 9.62
9.05 |  | CC[C@@H](Nc1cc(F)c(C(=O)N[C@@H](Cc2ccc(-c3c(C(F)(F)F)c4ccccc4n(C)c3=O)c3ncccc23)C(=O)O)c(F)c1)C(F)(F)F [Example 123, (S)-2-(2,6-difluoro-4-(((R)-1,1,1-trifluorobutan-2-yl)amino)benzamido)-3-(1-methyl-2-oxo-4-(trifluoromethyl)-1,2-dihydro-[3,8′-biquinolin]-5′-yl)propanoic acid] | 
 | 7.73 | CC[C@@H](Nc1cc(F)c(C(=O)N[C@@H](Cc2ccc(-c3nccc(C)c3Cl)c3ncccc23)C(=O)O)c(F)c1)C(F)(F)F [Example 325] | 
 | 8.66 | Cc1cc(C(F)(F)F)c(-c2ccc(C[C@H](NC(=O)c3c(F)cc(N4CCCC[C@@H]4C(F)(F)F)cc3F)C(=O)O)c3cccnc23)c(=O)n1C (atropisomer, axis not shown) [Example 230] | 
8.47 |  | CS(=O)(=O)Nc1cc(F)c(C(=O)N[C@@H](Cc2ccc(-c3ccc(C#N)cc3Cl)c3ncccc23)C(=O)O)c(F)c1 [Example 45, (S)-3-(8-(2-chloro-4-cyanophenyl)quinolin-5-yl)-2-(2,6-difluoro-4-(methylsulfonamido)benzamido)propanoic acid] | 
 |  | Cc1cc(N2CCOC[C@@H]2C(F)(F)F)cc(F)c1C(=O)N[C@@H](Cc1ccc(-n2c(=O)c3cncnc3n(C)c2=O)c2ncccc12)C(=O)O [Example 406, (S)-2-(2-fluoro-6-methyl-4-((R)-3-(trifluoromethyl)morpholino)benzamido)-3-(8-(1-methyl-2,4-dioxo-1,4-dihydropyrimido[4,5-d]pyrimidin-3(2H)-yl)quinolin-5-yl)propanoic acid] | pEC50 [2]: 10.10
 |  | Cc1cc(N2CCOC[C@@H]2C(F)(F)F)cc(F)c1C(=O)N[C@@H](Cc1ccc(-n2c(=O)c3ccc(F)cc3n(C)c2=O)c2ncccc12)C(=O)O [Example 431] | pEC50 [2]: 10.03
 | 7.94 | CC[C@@H](Nc1cc(F)c(C(=O)N[C@@H](Cc2ccc(-c3nccc(C)c3C)c3ncccc23)C(=O)O)c(F)c1)C(F)(F)F [Example 307] | 
 | 7.06 | CC(O)(c1cc(F)c(C(=O)N[C@@H](Cc2ccc(-c3ccc(C#N)cc3Cl)c3ncccc23)C(=O)O)c(F)c1)C(F)(F)F (stereo partly drawn) [Example 280] | 
9.70 |  | CC[C@@H](Nc1cc(F)c(C(=O)N[C@@H](Cc2ccc(-c3c(C(F)(F)F)cc(C)n(C)c3=O)c3ncccc23)C(=O)O)c(Cl)c1)C(F)(F)F [Example 144, (S)-2-(2-chloro-6-fluoro-4-(((R)-1,1,1-trifluorobutan-2-yl)amino)benzamido)-3-(8-(1,6-dimethyl-2-oxo-4-(trifluoromethyl)-1,2-dihydropyridin-3-yl)quinolin-5-yl)propanoic acid] | 
 | 8.54 | Cc1cc(C(F)(F)F)c(-c2ccc(C[C@H](NC(=O)c3c(F)cc(N4C[C@H](C)OC[C@H]4C)cc3F)C(=O)O)c3cccnc23)c(=O)n1C [Example 243] | 
 | 8.33 | Cc1c(N)cc(-c2ccc(C[C@H](NC(=O)c3c(F)cc(N4CCOC[C@@H]4C(F)(F)F)cc3F)C(=O)O)c3cccnc23)c(=O)n1C [Example 273] | 
 | 7.20 | O=C(N[C@@H](Cc1ccc(-c2cc3ccccc3oc2=O)c2ncccc12)C(=O)O)c1c(Cl)cccc1Cl [Example 196] | 
9.00 |  | CC[C@@H](Nc1cc(F)c(C(=O)N[C@@H](Cc2ccc(-n3c(=O)c4cc(N(C)C)ccc4n(C)c3=O)c3ncccc23)C(=O)O)c(F)c1)C(F)(F)F [Example 108, (S)-2-(2,6-difluoro-4-(((R)-1,1,1-trifluorobutan-2-yl)amino)benzamido)-3-(8-(6-(dimethylamino)-1-methyl-2,4-dioxo-1,4-dihydroquinazolin-3(2H)-yl)quinolin-5-yl)propanoic acid] | 
9.70 |  | Cc1cc(C(F)(F)F)c(-c2ccc(C[C@H](NC(=O)c3c(F)cc(N4C[C@@H](C)OC[C@@H]4C(F)(F)F)cc3F)C(=O)O)c3cccnc23)c(=O)n1C [Example 136, (S)-2-(2,6-difluoro-4-((2R,5R)-2-methyl-5-(trifluoromethyl)morpholino)benzamido)-3-(8-(1,6-dimethyl-2-oxo-4-(trifluoromethyl)-1,2-dihydropyridin-3-yl)quinolin-5-yl)propanoic acid] | 
6.87 |  | N#Cc1ccc(-c2ccc(C[C@H](NC(=O)c3c(F)cc(N4CCC4C(F)(F)F)cc3F)C(=O)O)c3cccnc23)c(Cl)c1 (stereo partly drawn) [Example 78, (2S)-3-(8-(2-chloro-4-cyanophenyl)quinolin-5-yl)-2-(2,6-difluoro-4-(2-(trifluoromethyl)azetidin-1-yl)benzamido)propanoic acid] | 
 | 7.27 | C[C@H](NC(=O)c1cc(F)c(C(=O)N[C@@H](Cc2ccc(-c3ccc(C#N)cc3Cl)c3ncccc23)C(=O)O)c(F)c1)c1ccccc1 [Example 162] | 
 | 7.32 | N#Cc1ccc(-c2ccc(C[C@H](NC(=O)c3c(F)cccc3OC(F)F)C(=O)O)c3cccnc23)c(Cl)c1 [Example 222] | 
 | 9.05 | Cc1cc(C(F)(F)F)c(-c2ccc(C[C@H](NC(=O)c3c(F)cc(N4CCOC[C@@H]4C(F)(F)F)cc3F)C(=O)O)c3ccc(C(F)(F)F)nc23)c(=O)n1C [Example 231] | 
 | 9.05 | Cn1cc(-c2ccc(C[C@H](NC(=O)c3c(F)cc(N[C@H](c4ccc(Cl)cc4)C(F)(F)F)cc3F)C(=O)O)c3cccnc23)c(=O)n(C)c1=O [Example 232] | 
 | 8.59 | Cc1c(-c2ccc(C[C@H](NC(=O)c3c(F)cc(N4CCS(=O)(=O)[C@H](C)C4)cc3F)C(=O)O)c3cccnc23)c(=O)n(C)c(=O)n1C [Example 237] | 
7.22 |  | N#Cc1ccc(-c2ccc(C[C@H](NC(=O)c3c(F)cc(N[C@@H](C4CC4)C(F)(F)F)cc3F)C(=O)O)c3cccnc23)c(Cl)c1 [Example 148] | 
8.38 |  | CS(=O)(=O)c1cc(F)ccc1-c1ccc(C[C@H](NC(=O)c2c(F)cc(NS(=O)(=O)c3ccc(-c4ccnc(F)c4)cc3)cc2F)C(=O)O)c2cccnc12 [Example 61, (S)-2-(2,6-difluoro-4-((4-(2-fluoropyridin-4-yl)phenyl)sulfonamido)benzamido)-3-(8-(4-fluoro-2-(methylsulfonyl)phenyl)quinolin-5-yl)propanoic acid] | 
 | 8.52 | CC(C)c1cccnc1-c1ccc(C[C@H](NC(=O)c2c(F)cc(N3CCOC[C@@H]3C(F)(F)F)cc2F)C(=O)O)c2cccnc12 [Example 248] | 
 |  | [2H]C([2H])([2H])c1cc(N2CCOC[C@@H]2C(F)(F)F)cc(F)c1C(=O)N[C@@H](Cc1ccc(-c2c(C(F)(F)F)cc(C)n(C)c2=O)c2ncccc12)C(=O)O [Example 462] | pEC50 [2]: 9.99
 |  | CC[C@@H](Nc1cc(F)c(C(=O)N[C@@H](Cc2ccc(-n3c(=O)c4ccncc4n(C)c3=O)c3ncccc23)C(=O)O)c(F)c1)C(F)(F)F [Example 475] | pEC50 [2]: 9.80
